Data from PubChem BioAssay AID2141 (Sanford-Burnham Center for Chemical Genomics, 2009).
pIC50: −log10 of the molar value. Activity calls are given as the source filed them. The rule behind the calls is not given here.

The compounds below were run against E3 ubiquitin-protein ligase SIAH1 (Homo sapiens) (UniProt Q8IUQ4) (assay: inhibitors of Siah-1 ligand interaction – biochemical, TR-FRET, dose response (AID 2141)). Settings: TR-FRET biochemical assay, Siah-1 binding.

SMILES	pIC50	IC50
Nc1ccc(O)c2c1C(=O)c1ccccc1C2=O	> 5.81	
O=C(/C=C/c1ccco1)OCc1nnc(-c2ccccc2)o1	5.36	
COC(=O)c1cccc(Cn2c(Cl)c(/C=N/NC(=O)c3ccccc3Cl)sc2=O)c1	4.72	
O=C(O)c1ccc(/C=N/NC(=O)c2ccc(CN3c4cccc5cccc(c45)S3(=O)=O)cc2)cc1	4.74	
Oc1ccc(N=Cc2sc3ccccc3c2Cl)cc1	4.83	
COc1cc(CC(=O)NCc2ccc3c(c2)OCO3)cc(OC)c1OC		inactive
CCNc1ccc(C(=O)O)cc1N	5.40	
CC1=CC(C)(C)N2C(=O)C(=Nc3ccc(O)cc3)c3cccc1c32	5.25	
C=CCc1cccc2cc(C(=O)Nc3ccc(CC(=O)O)cc3)c(=O)oc12	5.04	
C[N+]1(CCNC(=O)/C=N/O)CCCCC1		inactive
CCC(C)[C@H](NC(=O)N1CCn2c1nc1ccccc12)C(=O)NCCc1ccc(OC)c(OC)c1 (some centres undefined)		> 200 µM (inactive)
CCN(CC)CCOC(=O)c1ccc(N/C=C(/C#N)c2nc(-c3cc4ccccc4oc3=O)cs2)cc1		> 200 µM (inactive)
Cc1cc(C)nc(N=Nc2c(O)n(Cc3ccc(Cl)cc3)c3ccccc23)n1		> 200 µM (inactive)
CCCCn1c(NC(=O)c2ccc(Br)o2)c(C(=O)OCC)c2nc3ccccc3nc21	5.69	
CC(=O)Nc1ccc(N=Cc2c(O)c(C(=O)Nc3ccccc3)cc3ccccc23)cc1		> 200 µM (inactive)
O=C1CCCC(O)=C1N=Nc1ccc(C(=O)O)cc1	> 5.81	
COc1ccc(CCNC(=O)CCC(=O)N2CCOc3ccc(C)cc32)cc1OC		> 200 µM (inactive)
Cc1ccn2c(C(=O)CSc3ccc(Cl)cc3Cl)c(C)nc2c1		> 200 µM (inactive)
Cc1ccc(C(=O)NC2CC3CCCC(C2)N3C(=O)NC2CCCCC2)cc1 (centres undefined)		> 200 µM (inactive)
Fc1ccc(/C=N/NC(=S)Nc2cccnc2)cc1F		inactive
O=C(CCN1CCN(Cc2ccccc2)CC1)Nc1cccc(Cl)c1		> 200 µM (inactive)
COC/C=C/C1=CC2=CC(=O)C(C)(OC(=O)c3ccco3)C(=O)C2=CO1 (centres undefined)	5.23	
Cc1cc(C)n(-c2ccc(Cl)c(C(=O)Nc3cc(C(F)(F)F)ccc3Cl)n2)n1		> 200 µM (inactive)
O=S(=O)(Nc1c(S(=O)(=O)c2ccccc2)c2nc3ccccc3nc2n1C1CCCCC1)c1ccccc1	5.68	
O=S(=O)(O)c1cc(O)c2c(O)c(N=Nc3cc(Cl)ccc3O)c(S(=O)(=O)O)cc2c1	5.67	

SMILES	pIC50	IC50
COc1cccc(CCC(=O)N(C)C2CCCN(Cc3ccccc3F)C2)c1 (centres undefined)		> 200 µM (inactive)
CSc1ccccc1C(=O)NC(C)c1ccc(-n2ccnc2)cc1 (centres undefined)		inactive
Cc1cc(Cl)ccc1NC(=O)CN1CCC(C(O)(c2ccccc2)c2ccccc2)CC1		> 200 µM (inactive)
CCOC(=O)C1=C(C)N=c2s/c(=C\c3ccc(OCC(=O)O)cc3)c(=O)n2C1c1ccc(Cl)cc1 (centres undefined)		> 200 µM (inactive)
Cc1coc2c(C)c3oc(=O)c(CCC(=O)N[C@@H](C)C(=O)N[C@@H](Cc4ccccc4)C(=O)O)c(C)c3cc12	4.94	
O=c1[nH]c(-c2ccc(F)cc2)nc2c1sc(=S)n2-c1ccccc1		> 200 µM (inactive)
O=C(NCc1c(F)cccc1F)c1cc(COc2c(F)cccc2F)on1		> 200 µM (inactive)
C=CCn1c(NS(=O)(=O)c2ccccc2)c(S(=O)(=O)c2ccc(C)cc2)c2nc3ccccc3nc21	> 5.81	
Cc1c(C(=O)O)sc2nc(CSc3ncc(C(F)(F)F)cc3Cl)[nH]c(=O)c12	5.12	
COc1cc(NS(=O)(=O)c2ccc(NC(=S)NC(=O)/C=C/c3ccc(F)cc3)cc2)ncn1		> 200 µM (inactive)
CC(=O)c1ccc(NC(=O)CC2Nc3cccc4cccc(c34)NC2=O)cc1 (centres undefined)	5.07	
COC(=O)c1cc(NC(=O)c2ccccc2)c(=O)oc1/C=C/Nc1ccc(Oc2ccccc2)cc1		> 200 µM (inactive)
Cc1ccc(CNc2ccc(O)cc2)cc1	5.35	
CCCCn1c(NS(=O)(=O)c2ccc(C)cc2)c(S(=O)(=O)c2ccccc2)c2nc3ccccc3nc21	5.47	
NS(=O)(=O)c1ccc(NS(=O)(=O)c2ccc(NC(=O)c3ccc(-c4ccccc4)cc3)cc2)cc1	> 5.81	
CSc1n[nH]c(NCc2ccc(Cl)cc2)n1		> 200 µM (inactive)
Cc1ccc(S(=O)(=O)NN=C2C3CC4CC(C3)CC2C4)cc1[N+](=O)[O-]		> 200 µM (inactive)
Cc1ccc(-n2cccn2)c([C@@H]2C[C@H]3CN(C)C(=O)[C@]34CCCN24)c1		> 200 µM (inactive)
CC1CCN(S(=O)(=O)c2nnc(NC(=O)c3cccc(Cl)c3)s2)CC1		> 200 µM (inactive)
Nc1c(C(=O)NCc2ccco2)c2nc3ccccc3nc2n1Cc1ccccc1	> 5.81	
O=C1C=C(NCc2ccccc2)c2ccccc2C1=O	4.81	
CC(=O)c1ccc(S(=O)(=O)Nc2ccc(-c3ccc4nnc(C)n4n3)cc2)cc1	5.00	
Cc1cc2cc(CNC(=O)c3ccc(S(=O)(=O)N4CCCCC4)cc3)ccc2n1C	5.19	
Cc1ccccc1NC(=O)CN1C(=O)N/C(=C\c2ccccc2OCc2ccc(C(=O)O)cc2)C1=O	5.30	
COC(=O)c1c(C(=O)OC)c2cccc3cc(-c4ccccc4)c4ccc1c4n32	4.84	

SMILES	pIC50	IC50
COc1cc(CNc2ccc(O)cc2)cc(Br)c1OCc1ccccc1F	5.33	
O=S(=O)(Nc1nc2ccccc2nc1Nc1ccc(N2CCOCC2)cc1)c1cc(Cl)ccc1Cl		> 200 µM (inactive)
O=C(CSc1ccc(Br)c2cccc(Cl)c12)Nc1ccc(S(=O)(=O)Nc2nccs2)cc1		> 200 µM (inactive)
CC1(C)Cc2c(sc(/N=C/N3CCCCCC3)c2C#N)C(C)(C)N1		> 200 µM (inactive)
CCc1nnc(NS(=O)(=O)c2ccc(NC(=S)NC(=O)/C=C/c3ccc(C(C)C)cc3)cc2)s1	5.05	
O=C(N/N=C/c1cccc(Br)c1)c1ccc(Br)cc1	5.59	
CC(C)COc1ccc(-c2nn(-c3ccccc3)cc2/C=C2/SC(=S)N(CC(=O)O)C2=O)cc1	5.41	
CCC1=Nc2cc(C(=O)O)ccc2Sc2ccccc21		inactive
COCCOC(=O)c1sc(=S)n(CCOC)c1N	4.98	
CC(NC(=O)Nc1ccc(O)cc1)(C(F)(F)F)C(F)(F)F		inactive
CCCCNc1c2c3c(cccc3n(C)c1=O)C(=O)c1ccccc1-2		> 200 µM (inactive)
CCCCN(Cc1cc2cc(OC)ccc2[nH]c1=O)S(=O)(=O)c1ccc(C)cc1	4.77	
O=C(NCc1ccc(Cl)cc1)c1cc(-c2cccs2)on1	5.20	
O=C(CCn1ccc2ccccc21)NC1CCCc2ccccc21 (centres undefined)		> 200 µM (inactive)
O=C(Nc1ccccc1N1CCCCC1)c1ccc(-c2cccc(Cl)c2)o1		> 200 µM (inactive)
Cc1ccc(NC(=O)CCC(=O)NNC(=O)c2ccccc2[N+](=O)[O-])c(C)c1		> 200 µM (inactive)
O=C(Nc1ccc(S(=O)(=O)N2CCOCC2)cc1)c1ccc(=O)[nH]c1	5.72	
O=C(Nc1ccc(Oc2ccsc2C(=O)O)cc1)c1ccccc1F		inactive
CC1CCN(S(=O)(=O)c2ccc3c(c2)c(=O)c(C(=O)NCc2ccccc2Cl)cn3C)CC1		> 200 µM (inactive)
O=C(O)c1cc(O)c2c(c1)C(=O)c1cccc(O)c1C2=O		> 200 µM (inactive)
CN1C(=O)NC(c2ccccc2[N+](=O)[O-])C2=C1CCCC2=O (centres undefined)		> 200 µM (inactive)
CC(C)(C)c1cc(-c2csc(Nc3ccccc3)[n+]2Cc2ccc(C(=O)O)cc2)cc(C(C)(C)C)c1O	5.17	
Cc1cc(C)n2ncc(C(=O)Nc3ccc4c(c3)OCO4)c2n1		inactive
Oc1ccc(N=Cc2ccc(OCc3ccccc3)cc2)cc1	5.43	
CC1CCCCC1NC(=O)CCS(=O)(=O)c1ccc2c(c1)NC(=O)CO2 (centres undefined)		> 200 µM (inactive)

SMILES	pIC50	IC50
N#CC1C=Cc2ccccc2N1C(=O)c1ccccc1 (centres undefined)		> 200 µM (inactive)
CCN(CC)c1ccc(/C=c2\sc3nnc(-c4ccccc4Cl)n3c2=O)cc1		> 200 µM (inactive)
COCCn1nnnc1C(c1cc2ccc(OC)cc2[nH]c1=O)N1CCc2ccccc2C1 (centres undefined)	4.93	
CN(C)c1cccc2c(C=C(C#N)C#N)ccc(N(C)C)c12		inactive
CN(Cc1c(C(=O)N/N=C/c2ccc(F)cc2)nnn1-c1nonc1N)C1CCCCC1		> 200 µM (inactive)
Cc1cc(C)c(C#N)c(Nc2ccccc2C)n1		> 200 µM (inactive)
c1ccc(C(c2ccccc2)N2CCN(C(c3ccccn3)c3nnnn3C3CCCC3)CC2)cc1 (centres undefined)		> 200 µM (inactive)
COc1ccc(N=C2NC(=O)S/C2=C\c2ccc(N(C)C)cc2)cc1		> 200 µM (inactive)
O=C(O)CCN1C(=O)/C(=C/c2cn(-c3ccccc3)nc2-c2cccs2)SC1=S		inactive
CCCCn1c(NC(=O)c2ccco2)c(S(=O)(=O)c2ccc(C)cc2)c2nc3ccccc3nc21		> 200 µM (inactive)
CC1=C(C#N)c2nc(N)c(C#N)c(C)c2/C1=C\c1ccc(-c2ccccc2C(=O)O)o1		> 200 µM (inactive)
O=c1[nH]c2ccc(S(=O)(=O)N3CCCCC3)cc2s1		> 200 µM (inactive)
O=c1[nH]n(-c2ccc([N+](=O)[O-])cc2)c(=O)c2ccccc12	4.95	
CCOC(=O)C1(C)C=C(Nc2ccc(O)cc2)C(=O)N1c1ccc(O)cc1 (centres undefined)		inactive
N#Cc1c(NC(=O)c2ccc(Br)o2)n(-c2ccccc2)c2nc3ccccc3nc12	5.43	
O=C(Nc1ccc(Cl)cc1)OCc1cn(-c2ccccc2)nn1		> 200 µM (inactive)
CCCCn1c(NS(=O)(=O)c2ccccc2)c(C(=O)OCC)c2nc3ccccc3nc21	5.66	
CCN(CC)CCOC(=O)c1ccc(N/C=C(/C#N)c2nc(-c3ccc(OC)c(OC)c3)cs2)cc1	> 5.81	
COc1ccc(C(C(=O)NCc2ccccc2)N(Cc2ccco2)C(=O)c2cnccn2)cc1 (centres undefined)		> 200 µM (inactive)
COC(=O)C1C=C2c3cccc4[nH]cc(c34)CC2N(C)C1 (centres undefined)	5.73	
CCOC(=O)c1c(C)[nH]c2c1-c1ccccc1C(=O)C2=O		> 200 µM (inactive)
COCCCn1c(N)c(C(=O)NCc2ccco2)c2nc3ccccc3nc21	5.64	
CCOC(=O)/C(C#N)=c1/s/c(=C2\C=Cc3ccccc3N2CC)c(=O)n1CC		> 200 µM (inactive)
O=C(CC1Nc2cccc3cccc(c23)NC1=O)Nc1ccccc1 (centres undefined)	5.20	
